Measured values taken from the NIST ThermoML archive (doi:10.1021/je034062r).

What was measured:
[1] = 101.3 kPa, Liquid mixture 1
[2] = xn = mol fraction of the nth substance listed; conditions: for mass density: Liquid; for surface tension liquid-gas: Pendant drop shape

CN(C)C=O [dimethylformamide] + CCCCCCC
[1]
Conditions | interfacial tension [mN/m]
297.83 K | 2.49
302.83 K | 2.19
307.85 K | 1.87
312.85 K | 1.59
317.86 K | 1.26
322.86 K | 0.93
327.88 K | 0.66
332.88 K | 0.42
334.87 K | 0.302
336.86 K | 0.213
337.88 K | 0.169
338.88 K | 0.122
339.87 K | 0.086
340.87 K | 0.042
341.25 K | 0.032
341.88 K | 0.02
342.18 K | 0.011

CN1CCCC1=O [N-methylpyrrolidone] + CCCCCCC
[1]
Conditions | interfacial tension [mN/m]
297.76 K | 1.202
302.78 K | 0.93
307.81 K | 0.68
312.84 K | 0.45
317.79 K | 0.24
320.65 K | 0.137
322.8 K | 0.079
323.75 K | 0.055
324.8 K | 0.033
325.43 K | 0.019
325.81 K | 0.012
326.1 K | 0.009

Cc1ccccc1 [toluene] + CC(C)=O
[2], x1 = 1
Conditions | mass density [kg/m3] | surface tension liquid-gas [mN/m]
283.15 K | 875.9 | –
287.81 K | – | 28.93
288.15 K | 871.4 | –
293.15 K | 866.9 | –
297.82 K | – | 27.76
298.15 K | 862.4 | –
303.15 K | 857.8 | –
307.86 K | – | 26.6
308.15 K | 853.2 | –
313.15 K | 848.6 | –
317.86 K | – | 25.46
318.15 K | 843.9 | –
323.15 K | 839.2 | –
327.88 K | – | 24.29
328.15 K | 834.5 | –
333.15 K | 829.8 | –

CCCCCCC [heptane] + C1CCCCC1
[2], x2 = 0
Conditions | mass density [kg/m3] | surface tension liquid-gas [mN/m]
283.15 K | 692.2 | –
287.81 K | – | 20.7
288.15 K | 688 | –
293.15 K | 683.8 | –
297.82 K | – | 19.63
298.15 K | 679.5 | –
303.15 K | 675.2 | –
307.86 K | – | 18.68
308.15 K | 670.9 | –
313.15 K | 666.5 | –
317.86 K | – | 17.76
318.15 K | 662.1 | –
323.15 K | 657.7 | –
327.88 K | – | 16.68
328.15 K | 653.2 | –
333.15 K | 648.7 | –

CCCCCCCCCC [decane] + CN(C)C=O
[1]
Conditions | interfacial tension [mN/m]
292.78 K | 3.78
297.77 K | 3.41
302.79 K | 3.1
307.81 K | 2.72
312.79 K | 2.4
317.8 K | 2.09
322.78 K | 1.82
327.81 K | 1.53
332.81 K | 1.24
337.76 K | 0.95
342.78 K | 0.69
346.8 K | 0.48
348.32 K | 0.37
350.11 K | 0.32
352.77 K | 0.19
353.65 K | 0.15
354.76 K | 0.105
355.31 K | 0.083
355.62 K | 0.07
356.15 K | 0.056
356.72 K | 0.035
357.15 K | 0.019
357.45 K | 0.012
